{"source": "patent US6951639B2", "about": "“1,4,7,10-tetraazacyclododecane butyltriols, processes for their production and pharmaceutical agents containing them” (Schering AG, priority 1990, dated 2005)", "key": {"[1]": {"settings": "reference value for monomer contrast media; cited from earlier work"}, "mice": {"test_system": "mice", "experiment": "Acute toxicity determination (LD50), intravenous administration in a caudal vein", "assay_type": "in vivo", "settings": "mice 18-22 g, 2 ml/min, 7 days observation, death as criterion", "description": "1. Acute Toxicity Determination (LD50)\nIn an individual cage (Rhema/Hofheim company) the contrast medium was administered to mice (weight: 18-22 g) approximately at body temperature in a caudal vein at a rate of 2 ml/min. […]\nThe contrast media were administered to 3 mice each in 3 doses at variable volumes and constant concentration. The allocation of the animals to the individual doses and the injection sequence of the doses took place by chance.\nThe observation period of the animals extended over 7 days per injection. The death of the animals was used as the criterion of the effectiveness.\n(§1) The statistical evaluation of all study results took place with the probit analysis."}, "rats": {"test_system": "rats", "experiment": "Intracisternal administration (ED50), neural compatibility", "assay_type": "in vivo, rats (Wistar-Han-Schering, SPF)", "settings": "once intracisternally, 0.08 ml/animal, posture anomalies, spasms and death as criteria", "description": "2. Intracisternal Administration (ED50)\nThe test substance was administered under light ether anesthesia to an equal number of female and male rats (130-170 g, Wistar-Han-Schering, SPF) once intracisternally by suboccipital puncture in constant volumes (0.08 ml/animal) in different concentrations (3 doses per 10 animals per substance). A volume sampling check (Ringer's solution) followed the study. Posture anomalies, spasms and death of the animals were evaluated as action criteria.\nas §1"}, "[2]": {"test_system": "cerebral infarction in the rat", "experiment": "NMR-diagnostic in vivo examination: demonstration of a cerebral infarction in the rat", "parameters": "species or system Wistar rat", "settings": "image 1 minute after administration", "description": "The experimental animal was a female Wistar rat weighing 200 g. For the induction of the cerebral infarction, the animal was first anesthetized. After intravenous injection of Bengal red with a dose of 20 mg/kg, an area of the brain about 0.7 cm in diameter near the bregma point was irradiated through the cranium with light of wavelength 548 nm (this corresponds to the maximum absorption of Bengal red), by which, because of the formation of singlet oxygen by a chain of various reactions, there results the aggregation of platelets and thus an infarction in the irradiated region.\nThe imaging took place in an MRI experimental device of the General Electric company (field strength, 2 teslas). It was performed with a spin echo sequence (TR=400 msec, Ts=20 msec). The layer thickness was 3 mm, and 4 averagings were performed respectively.\nAn axial sectional plane image without contrast medium where the cranium points downward was taken. The infraction area is indicated only quite weakly by a lower signal intensity in comparison to the healthy tissue. […] The same animal was administered another dose after about 20 minutes, this time in the amount of 0.3 mmol of Gd/kg."}}}
{"smiles": "OC[C@@H](O)[C@@H](O)[C@H](O)[C@H](O)CO", "note": "[mannitol]", "values": [{"measurement": "intravenous compatibility", "setting": "[1]", "result": "30 to 40", "unit": "mmol/kg"}]}
{"smiles": "O=C([O-])CN1CCN(CC(=O)[O-])CCN(CC(O)C(O)CO)CCN(CC(=O)[O-])CC1.[Gd+3]", "note": "(stereo not shown) [Example 1, Gadolinium Complex of 10-(2,3,4-trihydroxybutyl)-1,4,7-triscarboxymethyl-1,4,7,10-tetraazacyclododecane]", "values": [{"measurement": "Acute i.v. LD50", "setting": "mice", "result": 35, "unit": "mmol/kg"}, {"measurement": "Neural ED50", "setting": "rats", "result": 27, "unit": "µmol/kg"}]}
{"smiles": "O=C([O-])CN1CCN(CC(=O)[O-])CCN(C(CO)C(O)CO)CCN(CC(=O)[O-])CC1.[Gd+3]", "note": "(stereo not shown) [Example 2, Gadolinium Complex of 10-(1-hydroxymethyl-2,3-dihydroxypropyl)-1,4,7-triscarboxymethyl-1,4,7,10-tetraazacyclododecane]", "values": [{"measurement": "Acute i.v. LD50", "setting": "mice", "result": 30, "unit": "mmol/kg"}, {"measurement": "signal enhancement in the area of infarction (MRI)", "setting": "[2]; 0.1 mmol of Gd/kg, 2 teslas, spin echo", "result": "clear enhancement"}, {"measurement": "signal enhancement in the area of infarction (MRI)", "setting": "[2]; further dose of 0.3 mmol of Gd/kg after about 20 minutes", "result": "enhancement substantially stronger than after the smaller dose"}, {"measurement": "Neural ED50", "setting": "rats", "result": 29, "unit": "µmol/kg"}]}
